Some results are limits rather than exact numbers.

Holding throughout (assay type): cell-based
Test [1] has as its system S. aureus (ATCC29213). In words: 50% growth inhibitory concentration (IC50) determination assay, S. aureus. As to conditions: Staphylococcus aureus, growth inhibition, Iso-Sensitest broth, OD 600 nm over 16 h, <0.098 μM = detection limit. The method, then: (§1) The in vitro antimicrobial activity of the compounds against S. aureus (ATCC29213), K. pneumoniae (ATCC10031), and A. baumannii (ATCC17978), was determined according to the following procedure: The assay used a 10-points Iso-Sensitest broth medium to measure quantitatively the in vitro activity of the compounds against S. aureus ATCC29213, K. pneumoniae ATCC 10031, and A. baumannii ATCC17978. Stock compounds in DMSO were serially two-fold diluted (range from 50 to 0.097 μM final concentration) in 384 wells microtiter plates and inoculated with 49 μL the bacterial suspension in Iso-Sensitest broth medium to have a final cell concentration of ˜5×10^5 CFU/mL in a final volume/well of 50 μL/well. Microtiter plates were incubated at 35±2° C. Bacterial cell growth was determined with the measurement of optical density at k=600 nm each 20 minutes over a time course of 16 h. Growth inhibition was calculated during the logarithmic growth of the bacterial cells with determination of the concentration inhibiting 50% (IC50) of the growth.

For test [2], the system named is K. pneumoniae (ATCC10031). Put plainly: 50% growth inhibitory concentration (IC50) determination assay, K. pneumoniae. As to conditions: Klebsiella pneumoniae, growth inhibition, Iso-Sensitest broth, OD 600 nm over 16 h, <0.098 μM = detection limit. The method, then: as §1
Test [3] concerns A. baumannii (ATCC17978). In words: 50% growth inhibitory concentration (IC50) determination assay, A. baumannii. Particulars: Acinetobacter baumannii, growth inhibition, Iso-Sensitest broth, OD 600 nm over 16 h, <0.098 = detection limit. The method, then:
as §1

What is called IC50 is the midpoint of a concentration-inhibition curve. The low end stands for greater potency in that assay, the high end for weaker potency in that assay. For `CCn1cc(C(=O)O)c(=O)c2cc(-c3cnc4[nH]c5c(NC)cc(F)c(F)c5c4c3N3CCC(N)C3)cnc21` (stereo not drawn) [Example 1.03, 6-[4-(3-Aminopyrrolidin-1-yl)-5,6-difluoro-8-(methylamino)-9H-pyrido[2,3-b]indol-3-yl]-1-ethyl-4-oxo-1,8-naphthyridine-3-carboxylic acid], the results for the concentration for half-maximal inhibition (IC50) in test [1], in test [2] and in test [3] were 0.944 µM, less than 0.098 µM and 1.49 µM, respectively.
With `CCn1cc(C(=O)O)c(=O)c2cc(-c3cnc4[nH]c5c(NC)cc(F)c(F)c5c4c3N3CCC(CN)C3)cnc21` (stereo not drawn) [Example 1.04, 6-(4-(3-(Aminomethyl)pyrrolidin-1-yl)-5,6-difluoro-8-(methylamino)-9H-pyrido[2,3-b]indol-3-yl)-1-ethyl-4-oxo-1,4-dihydro-1,8-naphthyridine-3-carboxylic acid], the IC50 in test [1] is 0.572 µM; in test [2], 0.11 µM; in test [3], 1.33 µM.
In the same order, the values of `CNc1cc(F)c(Cl)c2c1[nH]c1ncc(-c3cnc4c(c3)c(=O)c(C(=O)O)cn4C)c(N3CC[C@]4(C[C@@H]4N)C3)c12` [Example 4.02, 6-[4-[(2S,3S)-2-amino-5-azaspiro[2.4]heptan-5-yl]-5-chloro-6-fluoro-8-(methylamino)-9H-pyrido[2,3-b]indol-3-yl]-1-methyl-4-oxo-1,8-naphthyridine-3-carboxylic acid] are less than 0.098 µM, less than 0.098 µM and 0.0973 µM.
In the case of `CNc1cc(F)c(C#N)c2c1[nH]c1ncc(-c3cnc4c(c3)c(=O)c(C(=O)O)cn4C)c(N3C[C@H]4CC[C@@H](N)[C@H]4C3)c12` (relative stereo) [Example 1.13, 6-[5-Cyano-6-fluoro-8-(methylamino)-4-[rel-(3aR,4R,6aS)-4-amino-3,3a,4,5,6,6a-hexahydro-1H-cyclopenta[c]pyrrol-2-yl]-9H-pyrido[2,3-b]indol-3-yl]-1-methyl-4-oxo-1,8-naphthyridine-3-carboxylic acid], the half-inhibitory concentration (IC50) is 0.151 µM in test [1], 0.128 µM in test [2] and 2.79 µM in test [3].
In the same order, the values of `CNc1cc(F)c(F)c2c1[nH]c1ncc(-c3cnc4c(c3)c(=O)c(C(=O)O)cn4C)c(N3CCCC3CN)c12` (stereo not drawn) [Example 1.09, 6-[4-[2-(Aminomethyl)pyrrolidin-1-yl]-5,6-difluoro-8-(methylamino)-9H-pyrido[2,3-b]indol-3-yl]-1-methyl-4-oxo-1,8-naphthyridine-3-carboxylic acid] are 0.513 µM, 0.25 µM and 3.72 µM.
Consider `CNc1cc(F)c(F)c2c1[nH]c1ncc(-c3cnc4c(c3)c(=O)c(C(=O)O)cn4C)c(N3CC4(CCC4N)C3)c12` (stereo not drawn) [Example 1.02, 6-[4-(7-Amino-2-azaspiro[3.3]heptan-2-yl)-5,6-difluoro-8-(methylamino)-9H-pyrido[2,3-b]indol-3-yl]-1-methyl-4-oxo-1,8-naphthyridine-3-carboxylic acid], for which the IC50 in test [1] was 3.89 µM; in test [2] it was less than 0.098 µM; in test [3], 2.86 µM.
In the same order, the values of `CNc1cc(F)c(F)c2c1[nH]c1ncc(-c3cnc4c(c3)c(=O)c(C(=O)O)cn4C)c(N3CC[C@@H](N)C3)c12` [Example 1.17, 6-[4-[(3R)-3-Aminopyrrolidin-1-yl]-5,6-difluoro-8-(methylamino)-9H-pyrido[2,3-b]indol-3-yl]-1-methyl-4-oxo-1,8-naphthyridine-3-carboxylic acid] are 0.532 µM, less than 0.098 µM and 2.95 µM.

These data come from US20210323981A1, “FREE AMINO COMPOUNDS FOR THE TREATMENT AND PROPHYLAXIS OF BACTERIAL INFECTION” (Hoffmann-La Roche Inc., priority 2018, published 2021).
